According to ChEMBL document CHEMBL4177712, “AMP and adenosine are both ligands for adenosine 2B receptor signaling” (Bioorg Med Chem Lett, 2018):
Activity calls are given as the source filed them. The calls are words filed in the database; no cut-off is given here.

How the values were obtained:
[1] = target: T1, Adenosine receptor A2b (Homo sapiens) (UniProt P29275); assay: Agonist activity at human A2B receptor expressed in CHO cells assessed as induction of calcium mobilization by Fluo-4 dye based fluorescence assay; format: functional, cell-based
T1 sequence (whole entry): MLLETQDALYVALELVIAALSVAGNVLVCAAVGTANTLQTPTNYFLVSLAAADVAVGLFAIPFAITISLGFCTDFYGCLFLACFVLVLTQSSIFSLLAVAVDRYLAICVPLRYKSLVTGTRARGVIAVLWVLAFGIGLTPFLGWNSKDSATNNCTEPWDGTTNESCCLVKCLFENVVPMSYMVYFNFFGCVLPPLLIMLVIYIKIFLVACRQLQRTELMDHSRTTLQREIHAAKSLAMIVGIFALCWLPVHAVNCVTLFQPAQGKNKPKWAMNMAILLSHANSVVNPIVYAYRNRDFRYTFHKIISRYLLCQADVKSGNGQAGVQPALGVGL

[2] = target: T1, Adenosine receptor A2b (Homo sapiens); assay: Agonist activity at human A2B receptor expressed in CHOK1 cells expressing ADORA2B-CRE-bla assessed as induction of cAMP accumulation by FRET assay; format: functional, cell-based

Structure (SMILES)	Activity [1]	Activity [2]
Nc1ncnc2c1ncn2[C@H]1O[C@H](COP(O)(O)=S)[C@@H](O)[C@H]1O	Dose-dependent effect	inactive
Nc1ncnc2c1ncn2[C@@H]1O[C@H](CO)[C@@H](O)[C@H]1O	Active	
